Patent publication US11503828B2, “Antibacterial hydrophilic compound and use thereof” (SHENZHEN UNIVERSITY, priority 2017, dated 2022)

How the values were obtained:
[1] = Hydrophilicity (water contact angle) of modified PET cloth; assay type: physicochemical; conditions: for Contact angel: water contact angle of PET cloth modified with finishing liquid, UV 254 nm 1 minute, untreated PET 92 degrees
Experimental: (§1) The antibacterial hydrophilic compounds obtained in Examples 1-29 may be formulated into a finishing liquid having a mass concentration of 0.1-10% using water as a solvent, and the PET cloth may be impregnated and modified by the finishing liquid. After irradiation for 1 minute at ultraviolet light (wavelength: 254 nm), the antibacterial activity against Escherichia coli and Staphylococcus aureus may be tested by plate counting method, and their hydrophilicity (water contact angle of untreated PET may be 92 degrees) may be tested.
FIG. 3 illustrates a change in a contact angle of PET cloth treated or untreated by an antibacterial hydrophilic compound according to Example 13 of the present disclosure, where section (A) is a photograph of untreated PET cloth, and section (B) is a photograph of treated PET clot.

Escherichia coli = assay: Antibacterial activity of modified PET cloth by plate counting method; assay type: cell-based; parameters: Antibacterial activity, Washing one time: concentration or dose not given beside the values; conditions: E. coli
Experimental: as §1

Staphylococcus aureus = assay: as above; assay type: cell-based; parameters: Antibacterial activity, Washing one time: concentration or dose not given beside the values; conditions: S. aureas
Experimental: as §1

[2] = Hydrophilicity (core height) of modified PET cloth, FIG. 5; assay type: physicochemical; conditions: modified PET cloth (B) vs unmodified PET (A)
Text: FIG. 5 is a diagram illustrating hydrophilicity of PET cloth treated with an antibacterial hydrophilic compound according to Example 1 of the present disclosure.

Compound	Contact angel [1] [degrees]	Antibacterial activity, Washing 50 times (Escherichia coli) [%]	Antibacterial activity, Washing one time (Escherichia coli) [%]	Antibacterial activity, Washing 50 times (Staphylococcus aureus) [%]	water contact angle of the treated PET cloth ([1]; FIG. 3, untreated PET cloth 92 degrees) [°]	Antibacterial activity, Washing one time (Staphylococcus aureus) [%]	core height vs unmodified PET [2]
C[N+](C)(CCCCS(=O)(=O)[O-])CCOc1ccc(C(=O)c2ccccc2)cc1 [Example 2]	0	86.2	99.99	89.9	–	–	–
CC1(C)C(=O)N(COC(=O)Nc2ccc(C(=O)c3ccccc3)cc2)C(C)(C)N1Cl [Example 26]	45	97.9	99.99	99.9	–	–	–
CCCCCCCCCCCC[N+](C)(C)c1ccc(C(=O)Oc2ccc(C(=O)c3ccccc3)cc2)cc1 [Example 13]	0	91.7	99.99	96.9	0	99.99	–
CCOP(=O)([O-])OCC[N+](C)(C)Cc1ccc(C(=O)c2ccccc2)cc1 [Example 3]	0	87.8	99.99	90.2	–	99.99	–
C[N+](C)(CCC(=O)[O-])c1ccc(C(=O)Oc2ccc(C(=O)c3ccccc3)cc2)cc1 [Example 4]	0	86.9	99.99	80.9	–	99.99	–
CC1(C)C(=O)N(CC(O)CNCc2ccc(C(=O)c3ccccc3)cc2)C(=O)N1Cl (centres unmarked) [Example 28]	40	95.1	99.99	99.9	–	99.99	–
CC1(C)C(=O)N(Cc2ccc(C(=O)c3ccccc3)cc2)C(=O)N1Cl [Example 27]	50	94.9	99.99	99.8	–	–	–
C[N+](C)(CCS(=O)(=O)[O-])Cc1ccc(C(=O)c2ccccc2)cc1 [Example 6]	0	86.6	99.99	89.7	–	–	–
CCCCCCCCCCCC[N+](C)(C)Cc1ccc(C(=O)c2ccccc2)cc1 [Example 14]	0	91.7	99.99	96.9	–	99.99	–
CCCCCCCCCC[N+](C)(C)Cc1ccc2c(c1)C(=O)c1ccccc1C2=O [Example 16]	0	91.7	99.99	98.5	–	–	–
C[N+](C)(CCCS(=O)(=O)[O-])c1ccc(C(=O)c2ccc([N+](C)(C)CCCS(=O)(=O)[O-])cc2)cc1 [Example 1]	0	88.5	99.99	92.9	–	99.99	significantly greater
CCCCCCCCCCCC[N+](C)(C)CCOC(=O)Nc1ccc(C)c(NC(=O)Nc2ccccc2C(=O)c2ccc(Cl)cc2)c1 [Example 18]	0	95.8	99.99	99.9	–	99.99	–
CCCCCCCC[N+](C)(C)CCOC(=O)Nc1ccc(C(=O)c2ccccc2)cc1.[Br-] [Example 11]	0	92.8	99.99	99.9	–	99.99	–
CCCCCCCCCC[N+](C)(C)Cc1ccc(C(=O)c2ccc(C[N+](C)(C)CCCCCCCCCC)cc2)cc1 [Example 15]	0	96.8	99.99	99.9	–	–	–
CCCCCCCC[N+](C)(C)Cc1cn(Cc2ccc(C(=O)c3ccccc3)cc2)nn1 [Example 19]	0	92.8	99.99	99.6	–	99.99	–
